Reference: the NIST ThermoML archive (doi:10.1021/acs.jced.6b00279)
± gives the expanded uncertainty stated by the source.

Conditions: Crystal; visual observation

- Normal melting temperature: 105.00 ± 2 °C
Compound: CCCC[n+]1ccccc1.[Br-] [1-butylpyridinium bromide]
